The values below come from EP4711356A1, “TETRAHYDROCARBAZOLE DERIVATIVE, PHARMACEUTICAL COMPOSITION, AND USE THEREOF” (Nain Biotech (Hangzhou) Co., Ltd., priority 2023, dated 2024).

This test concerns HeLa cells. Kind of test: Cell-based pharmacodynamic assay (CellTiter-Glo proliferation inhibition), HeLa. As to conditions: human cervical cancer HeLa cells; 72 hours incubation; CellTiter-Glo luminescence; read-out: IC50 against HeLa cells. On the procedure:
Complete media such as RPMI 1640 (Gibco, A1049101), EMEM (ATCC, 30-2003), DMEM (Gibco, C11995500CP), McCoy's 5A (Gibco, 16600082), and F-12K (ATCC, 30-2004) were prepared by supplementing with varying concentrations of FBS (Biological Industries, 04-002-1A) and 1% Penicillin-Streptomycin (Gibco, 15140122) and was thoroughly mixed. Tumor cell lines including HeLa (ATCC, CCL-2; EMEM + 10% FBS), TOV-21G (Cobioer, CBP60292; 1:1 mixture of MCDB 105 and Medium 199 + 15% FBS), OVCAR-3 (ATCC, HTB-161; RPMI 1640 + 20% FBS + 0.01 mg/ml bovine insulin), SK-OV-3 (ATCC, HTB-77; McCoy's 5A + 10% FBS), A2780 (Cobioer, CBP60283; RPMI 1640 + 10% FBS), OC316 (Cobioer, CBP60620; RPMI 1640 + 10% FBS), HuH-7 (Cobioer, CBP60202; DMEM + 10% FBS), SNU-398 (ATCC, CRL-2233; RPMI 1640 + 10% FBS), NCI-H2286 (ATCC, CRL-5938; RPMI 1640 + 5% FBS), NCI-H82 (ATCC, HTB-175; RPMI 1640 + 10% FBS), A549 (ATCC, CCL-185; F-12K + 10% FBS), SK-MEL-3 (ATCC, HTB-69; McCoy's 5A + 15% FBS), PSN-1 (Cobioer, CBP61215; RPMI 1640 + 10% FBS), LoVo (ATCC, CCL-229; F-12K + 10% FBS), DLD-1 (ATCC, CCL-221; RPMI 1640 + 10% FBS), HCT-15 (ATCC, CCL-225; RPMI 1640 + 10% FBS), A498 (ATCC, HTB-44; EMEM + 10% FBS), LNCaP (ATCC, CRL-1740; RPMI 1640 + 10% FBS), SNU-1 (ATCC, CRL-5971; RPMI 1640 + 10% FBS), SCC-9 (Cobioer, CBP60428; DMEM/F12 (1:1) + 10% FBS + 0.5 mM sodium pyruvate + 400 ng/ml hydrocortisone), SU-DHL-5 (ATCC, CRL-2958; RPMI 1640 + 10% FBS), Toledo (ATCC, CRL-2631; RPMI 1640 + 10% FBS), and SJCRH30 (ATCC, CRL-2061; RPMI 1640 + 10% FBS) were thawed. Cells were passaged approximately twice, and those in good growth condition (typically passages 4-6) were selected for experiments. The medium was aspirated, and the cells were washed once with 0.25% trypsin (Invitrogen, 25200-072). The waste liquid was discarded, and 3 mL of fresh trypsin was added to the culture flask for digestion. When the cells began to detach, 9 mL of complete medium was added to neutralize the trypsin digestion, and the mixture was gently mixed. The cell suspension was transferred to a centrifuge tube using a pipette and centrifuged at 1000 rpm for 5 minutes. The supernatant was discarded, and 5 mL of medium was added to the centrifuge tube to gently resuspend the cells evenly. The cell concentration was adjusted to 1×10^4/mL-3×10^4/mL using a cell counter (Beckman Coulter, Vi-cellTM XR). The cell suspension was added to a 96-well plate (Corning, 3903) at 100 µL/well. The plate was labeled with details such as cell name, seeding density, and date, and then placed in a CO2 incubator (Thermo, Thermo 3111) overnight. Test compounds were prepared as 20 mM stock solutions in DMSO (Sigma, D4540-1L) and added to the corresponding cell wells using an HPD300 automated dispenser according to the designed layout. The plates were incubated in a 37°C, 5% CO2 incubator for 72 hours. CellTiter-Glo Buffer was thawed at room temperature. The lyophilized CellTiter-Glo substrate was equilibrated to room temperature. The CellTiter-Glo Buffer was added to the CellTiter-Glo substrate and thoroughly mixed. The cell plates were removed and equilibrated to room temperature, and 50 µL of the mixed CellTiter-Glo reagent was added to each well. The plates were protected from light and shaken for 10 minutes, followed by incubation for 10 minutes. The plates were placed in an Enspire reader (luminescence measurement time: 0.5 s) to record luminescence results. The inhibition rate was calculated using the following formula: Inhibition rate (%) = (1 - (RLU_compound - RLU_blank) / (RLU_DMSO - RLU_blank)) × 100%. Dose-response curves were plotted using XLFit to calculate IC50 values. A four-parameter model was used: [fit = (A + ((B - A) / (1 + ((C/x) ^ D)))]. The test results for HeLa cells are shown in Table 1. Table 1: IC50 values of some test compounds against human cervical cancer HeLa cells
(In general: ATP-based viability assays read luminescence as a measure of living cells.)

One may read the IC50 as the concentration at which inhibition is half-maximal. Consider `[2H]C([2H])([2H])c1ccc2[nH]c3c(c2c1)CCCC3=NCC(=O)OC(C)(C)C` [Compound E32], for which the IC50 is not above 200 nM.
As for `CC(O)CCCOC(=O)c1cccc2[nH]c3c(c12)CCCC3=O` (racemic) [Compound B142], the IC50 is not above 200 nM.
Under `O=C1CCCc2c1[nH]c1cccc(N3CCO[C@H](CO)C3)c21` [Compound B194] stands not above 200 nM; under `Cc1cccc2[nH]c3c(c12)CCCC3=NCC(=O)OC(C)(C)C` [Compound E52], not above 200 nM; under `COc1ccc2[nH]c3c(c2n1)CCCC3=NCCO` [Compound E37], not above 200 nM.
Under `O=C1CCCc2c1[nH]c1cccc(C(=O)OCC3CC3)c21` [Compound B41] stands not above 200 nM; under `O=C1CCCc2c1[nH]c1cccc(C(=O)OC3CCC(O)CC3)c21` (stereo not drawn) [Compound B130], not above 200 nM.
Turning to `COC(=O)c1cccc2[nH]c3c(c12)CCCC3=NC(C)C(F)(F)F` (stereo not drawn) [Compound E69], the IC50 is not above 200 nM.
Under `CCC(OC(=O)c1cccc2[nH]c3c(c12)CCCC3=O)C1CC1` (racemic) [Compound B138] stands not above 500 nM.
Under `CCOC(=O)c1cccc2c1c1c(n2C(=O)c2c[nH]cc2C(F)(F)F)C(=O)CCC1` [Compound C57] stands not above 500 nM; under `Cc1ccc2[nH]c3c(c2c1)CCCC3=NC1CCN(S(=O)(=O)C(C)C)CC1C` (stereo not drawn) [Compound E66], not above 200 nM; under `CCOCC(=O)n1c2c(c3c(C(=O)OCC)cccc31)CCCC2=O` [Compound C14], not above 200 nM.
With `CCOC(=O)c1cccc2c1c1c(n2C(=O)C2(c3ccc4c(c3)OC(F)(F)O4)CC2)C(=O)CCC1` [Compound C36], the IC50 is not above 200 nM.
In the case of `COCCOC1CCC(N=C2CCCc3c2[nH]c2ccc(C)cc32)CC1` (stereo not drawn) [Compound E46] it was not above 200 nM; in that of `Cc1ccc2[nH]c3c(c2c1)CCCC3=NCCOCCO` [Compound E31], not above 200 nM.
On to `CCOC(=O)c1cccc2c1c1c(n2C(=O)c2ncoc2C)C(=O)CCC1` [Compound C26], for which the IC50 was not above 200 nM.
With `O=C1CCCc2c1[nH]c1cccc(N3CCCC3)c21` [Compound B66], the IC50 was not above 200 nM.
As for `COC(=O)c1c(Cl)ccc2[nH]c3c(c12)CCCC3=O` [Compound B89], the IC50 is not above 200 nM.
In the case of `COC(=O)c1cc(F)cc2[nH]c3c(c12)CCCC3=O` [Compound B83] it was not above 200 nM.
With `Cc1ccc2[nH]c3c(c2c1)CCCC3=NC1CCN(CC(F)(F)F)CC1C` (stereo not drawn) [Compound E65], the IC50 is not above 200 nM.
Under `Cn1cc(-c2cccc3[nH]c4c(c23)CCCC4=O)cn1` [Compound B154] stands not above 200 nM.
For `O=C1CCCc2c1[nH]c1cccc(C(=O)OCCO)c21` [Compound B31], the IC50 is not above 200 nM.
Turning to `O=C1CCCc2c1[nH]c1cccc(C(=O)OC3CCOC3)c21` (racemic) [Compound B137], the IC50 is not above 200 nM.
Under `O=C1CCCc2c1[nH]c1cccc(C(=O)OC3CCNC3)c21` (racemic) [Compound B27] stands not above 500 nM; under `O=C1CCCc2c1[nH]c1cccc(C3=CCOCC3)c21` [Compound B62], not above 200 nM.
In the case of `Cc1ccc2[nH]c3c(c2c1)CCCC3=NC1(CO)CCC1` [Compound E08] it was not above 200 nM.
On to `Cc1ccc2[nH]c3c(c2c1)CCC1(CC1)C3=O` [Compound B14], for which the IC50 was not below 5000 nM.
`Cc1ccc2[nH]c3c(c2c1)CCCC3=NC(CO)C(C)C` (racemic) [Compound E02]: the IC50 was not above 500 nM.
In the case of `CCOC(=O)c1cccc2c1c1c(n2C(=O)c2ccccc2)C(=O)CCC1` [Compound C04] it was not above 200 nM.
On to `C#CCOCC(C)OC(=O)c1cccc2[nH]c3c(c12)CCCC3=O` (racemic) [Compound B111], for which the IC50 is not above 200 nM.
As to `COC(=O)c1cccc2[nH]c3c(c12)CCCC3=NCC(=O)OC(C)(C)C` [Compound E29], the IC50 is not above 200 nM.
Under `O=C1CCCc2c1[nH]c1cccc(C(=O)OC3CCC3)c21` [Compound B95] stands not above 200 nM; under `COc1ccc2[nH]c3c(c2c1-c1cnn(C)n1)CCCC3=O` [Compound B134], not above 200 nM.
Under `Cc1ccc2[nH]c3c(c2c1)CCCC3=NCC(C)(C)O` [Compound E03] stands not above 500 nM.
As for `C#Cc1cccc2[nH]c3c(c12)CCCC3=O` [Compound B68], the IC50 was not above 200 nM.
With `Cc1nsc(-c2cccc3[nH]c4c(c23)CCCC4=O)n1` [Compound B71], the IC50 is not above 200 nM.
Under `CC(C)C(=O)Oc1cccc2[nH]c3c(c12)CCCC3=O` [Compound B33] stands not above 200 nM; under `CCOC(=O)c1cccc2c1c1c(n2C(=O)c2ccc(Cl)cc2)C(=O)CCC1` [Compound C20], not above 200 nM.
Under `NS(=O)(=O)c1cccc2[nH]c3c(c12)CCCC3=O` [Compound B75] stands not above 500 nM; under `Cc1ccc2[nH]c3c(c2c1)CCCC3=NC1CCN(S(=O)(=O)C(C)C)CC1` [Compound E43], not above 200 nM.
In the case of `CCCCCOC(=O)n1c2c(c3c(C(=O)OCC)cccc31)CCCC2=O` [Compound C16], the IC50 is not above 200 nM.
Under `Cc1ccc2[nH]c3c(c2c1)CCCC3=NC(C(=O)OC(C)(C)C)C(C)C` (stereo not drawn) [Compound E56] stands not above 200 nM; under `CC1(C)CCN(c2cccc3[nH]c4c(c23)CCCC4=O)C1` [Compound B23], not above 200 nM; under `CCOC(=O)c1cccc2c1c1c(n2C(=O)CCCN(C)C)C(=O)CCC1` [Compound C50], not above 200 nM.
For the compound `COc1ccc2[nH]c3c(c2n1)CCCC3=NCC(=O)OC(C)(C)C` [Compound E35], the IC50 is not above 200 nM.
Under `Cc1ccc2[nH]c3c(c2c1)CCCC3=NCCN` [Compound E68] stands not above 200 nM.
Under `Cc1noc(-c2cccc3[nH]c4c(c23)CCCC4=O)n1` [Compound B69] stands not above 200 nM.
As to `C#CCC(C)OC(=O)c1cccc2[nH]c3c(c12)CCCC3=O` (racemic) [Compound B114], the IC50 is not above 200 nM.
In the case of `C=CC(=O)n1c2c(c3c(C(=O)OCC)cccc31)CCCC2=O` [Compound C03] it was not above 200 nM; in that of `COC(=O)c1cccc2[nH]c3c(c12)CCCC3=NCCO` [Compound E30], not above 200 nM.
In the case of `COc1ccc2[nH]c3c(c2c1)CCCC3=NCC(=O)OC(C)(C)C` [Compound E33], the IC50 was not above 500 nM.
In the case of `[2H]C([2H])([2H])c1ccc2[nH]c3c(c2c1)CCCC3=O` [Compound B15] it was not above 200 nM; in that of `COc1ccc2[nH]c3c(c2n1)CCCC3=O` [Compound B09], not above 200 nM; in that of `CCC#Cc1cccc2[nH]c3c(c12)CCCC3=O` [Compound B126], not above 200 nM.
